{
  "source": "paper PMC8402547",
  "about": "“In Vitro and In Vivo Analysis of Ochratoxin A-Derived Glucuronides and Mercapturic Acids as Biomarkers of Exposure” (Toxins, 2021)",
  "key": {"[1]": {"settings": "human urine samples; cited from earlier work"}, "[2]": {"settings": "0.5 mg/kg bw oral, within 96 h, cited from earlier work"}, "[3]": {"assay": "In vitro incubation of OTA with liver S9 and UDP-glucuronic acid (glucuronide formation)", "type": "in vitro ADME, rat", "description": "(§1) Liver S9 fractions from rats (Sprague-Dawley, male, 97 donors, 20 mg/mL) and humans (mixed genders, 50 donors, 20 mg/mL) were obtained from XenoTech (Kansas City, USA). S9 fractions from Goettingen® minipigs and rabbits were prepared in-house based on a modified protocol from Hubbard et al. (1985). Rabbit liver (Blue Vienna x German Giant, female) was obtained from ImmonuGlobe (Himmelstadt, Germany), whereas minipig liver (Goettingen® minipig, male, 42.4 kg bw) was obtained from the University Goettingen, Department of Animal Science.\n(§2) For analysis of OTA-derived glucuronides, liver S9 fractions (4 mg/mL) of rats, rabbit, minipigs and humans were incubated with OTA (0.1 mM), uridine-diphosphate-glucuronic acid (5 mM) and magnesium chloride (5 mM) in 100 mM phosphate-buffered saline (pH 7.4) in a total volume of 300 µL at 37 °C for two hours. Control incubations were carried out in the absence of uridine-diphosphate-glucuronic acid. […] Ten microliters (10 µL) of each sample was injected into the LC–MS system and analyzed using the method described below. […]\n(§3) The API 2000/Q-Trap mass spectrometer was operated with a Turbo Ion Spray source in negative ion mode with a voltage of −4000 V. Spectral data were recorded with N2 as the heater gas at 450 °C and as the collision gas (CAD = −2) in multiple reaction monitoring mode (MRM)."}, "[4]": {"assay": "In vitro incubation of OTA with liver S9 and UDP-glucuronic acid (glucuronide formation)", "type": "in vitro ADME", "settings": "OTA 0.1 mM, UDPGA 5 mM, 37 °C", "description": "as §1, §2, §3"}, "[5]": {"assay": "In vitro incubation of OTA with liver S9 and UDP-glucuronic acid (glucuronide formation)", "type": "in vitro ADME, human", "description": "as §1, §2, §3"}},
  "note": "Like-named read-outs stand apart in the source and are kept apart here.",
  "data": [
    {"smiles": "C[C@@H]1Cc2c(Cl)cc(C(=O)N[C@@H](Cc3ccccc3)C(=O)O)c(O)c2C(=O)O1", "note": "[OTA, Ochratoxin A]", "values": [
      {"measurement": "Concentration in human urine following enzymatic hydrolysis as compared to without hydrolysis", "setting": "[1]", "value": "up to 6 fold"},
      {"measurement": "Fraction of orally administered dose excreted in urine", "setting": "[2]; female rats", "value": 5.2, "unit": "%"},
      {"measurement": "Fraction of orally administered dose excreted in urine", "setting": "[2]; male rats", "value": 2.1, "unit": "%"}
    ]},
    {"smiles": "CC1Cc2c(Cl)cc(C(=O)NC(Cc3ccccc3)C(=O)OC3OC(C(=O)O)C(O)C(O)C3O)c(O)c2C(=O)O1", "note": "(stereo not drawn) [OTA-Glucuronide]", "values": [
      {"measurement": "Formation of OTA glucuronide (m/z transitions 578/402 and 578/358)", "setting": "[3]; rat liver S9 4 mg/mL, OTA 0.1 mM, UDPGA 5 mM, 37 °C", "value": "detected"},
      {"measurement": "OTA-glucuronide formed as compared to rabbit and minipig samples (signal intensities)", "setting": "[3]; rat liver S9 vs rabbit and minipig liver S9", "value": "5–10 times"},
      {"measurement": "Formation of OTA glucuronide (m/z transitions 578/402 and 578/358)", "setting": "[4]; minipig liver S9 4 mg/mL", "value": "detected"},
      {"measurement": "Formation of OTA glucuronide (m/z transitions 578/402 and 578/358)", "setting": "[4]; rabbit liver S9 4 mg/mL", "value": "detected"},
      {"measurement": "Formation of OTA glucuronide (m/z transitions 578/402 and 578/358)", "setting": "[5]; human liver S9 4 mg/mL, OTA 0.1 mM, UDPGA 5 mM, 37 °C", "value": "detected"},
      {"measurement": "OTA-glucuronide formed as compared to rabbit and minipig samples (signal intensities)", "setting": "[5]; human liver S9 vs rabbit and minipig liver S9", "value": "5–10 times"}
    ]}
  ]
}
